Results reported in patent US12552775B2, “Compounds and uses thereof” (Foghorn Therapeutics Inc., priority 2020, dated 2026).

Assays:
[1] = molecular target: T1, HiBit-BRM fusion protein (Homo sapiens, UniProt P51531); assay: HiBiT-BRM cell-based degradation assay (Nano-Glo HiBiT Lytic Detection, 24 h); details: stable HeLa cell line expressing HiBiT-BRM, top dose 30 μM
T1 construct: expressed in transfected cells
Protocol: (§1) Procedure: A stable HeLa cell line expressing HiBiT-BRM was generated. On day 0, 5000 cells were seeded in 40 μL of media into each well of 384-well cell culture plates. On day 1, cells were treated with 120 nL DMSO or 120 nL of 3-fold serially DMSO-diluted compounds (10 points in duplicate with 30 μM as final top dose). Subsequently plates were incubated for 24 h in a standard tissue culture incubator and equilibrated at room temperature for 15 minutes. Nano-Glo HiBiT Lytic Detection System (Promega N3050) reagent was freshly prepared and 20 ul was added to each well. Upon addition of this LgBit-containing reagent, the HiBiT and LgBiT proteins associate to form the luminescent NanoBiT luciferase. The plates were shaken for 10 minutes at room temperature and the bioluminescence read using an EnVision plate reader (PerkinElmer).
(§2) The degradation % was calculated using the following formula: % degradation=100%−100%×(Lumsample−LumLC)/(LumHC−LumLC). DMSO treated cells are employed as High Control (HC) and 2 μM of a known BRM/BRG1 degrader standard treated cells are employed as Low Control (LC).

[2] = molecular target: T2, HiBit-BRG1 fusion protein (Homo sapiens, UniProt P51532); assay: HiBiT-BRG1 cell-based degradation assay (Nano-Glo HiBiT Lytic Detection, 24 h); details: stable HeLa cell line expressing HiBit-BRG1 and LgBit, top dose 30 μM, read-out: BRG1 HiBit Degradation Maximum (%)
T2 construct: expressed in transfected cells
T2 sequence (P51532 whole entry, the tested form may be a part): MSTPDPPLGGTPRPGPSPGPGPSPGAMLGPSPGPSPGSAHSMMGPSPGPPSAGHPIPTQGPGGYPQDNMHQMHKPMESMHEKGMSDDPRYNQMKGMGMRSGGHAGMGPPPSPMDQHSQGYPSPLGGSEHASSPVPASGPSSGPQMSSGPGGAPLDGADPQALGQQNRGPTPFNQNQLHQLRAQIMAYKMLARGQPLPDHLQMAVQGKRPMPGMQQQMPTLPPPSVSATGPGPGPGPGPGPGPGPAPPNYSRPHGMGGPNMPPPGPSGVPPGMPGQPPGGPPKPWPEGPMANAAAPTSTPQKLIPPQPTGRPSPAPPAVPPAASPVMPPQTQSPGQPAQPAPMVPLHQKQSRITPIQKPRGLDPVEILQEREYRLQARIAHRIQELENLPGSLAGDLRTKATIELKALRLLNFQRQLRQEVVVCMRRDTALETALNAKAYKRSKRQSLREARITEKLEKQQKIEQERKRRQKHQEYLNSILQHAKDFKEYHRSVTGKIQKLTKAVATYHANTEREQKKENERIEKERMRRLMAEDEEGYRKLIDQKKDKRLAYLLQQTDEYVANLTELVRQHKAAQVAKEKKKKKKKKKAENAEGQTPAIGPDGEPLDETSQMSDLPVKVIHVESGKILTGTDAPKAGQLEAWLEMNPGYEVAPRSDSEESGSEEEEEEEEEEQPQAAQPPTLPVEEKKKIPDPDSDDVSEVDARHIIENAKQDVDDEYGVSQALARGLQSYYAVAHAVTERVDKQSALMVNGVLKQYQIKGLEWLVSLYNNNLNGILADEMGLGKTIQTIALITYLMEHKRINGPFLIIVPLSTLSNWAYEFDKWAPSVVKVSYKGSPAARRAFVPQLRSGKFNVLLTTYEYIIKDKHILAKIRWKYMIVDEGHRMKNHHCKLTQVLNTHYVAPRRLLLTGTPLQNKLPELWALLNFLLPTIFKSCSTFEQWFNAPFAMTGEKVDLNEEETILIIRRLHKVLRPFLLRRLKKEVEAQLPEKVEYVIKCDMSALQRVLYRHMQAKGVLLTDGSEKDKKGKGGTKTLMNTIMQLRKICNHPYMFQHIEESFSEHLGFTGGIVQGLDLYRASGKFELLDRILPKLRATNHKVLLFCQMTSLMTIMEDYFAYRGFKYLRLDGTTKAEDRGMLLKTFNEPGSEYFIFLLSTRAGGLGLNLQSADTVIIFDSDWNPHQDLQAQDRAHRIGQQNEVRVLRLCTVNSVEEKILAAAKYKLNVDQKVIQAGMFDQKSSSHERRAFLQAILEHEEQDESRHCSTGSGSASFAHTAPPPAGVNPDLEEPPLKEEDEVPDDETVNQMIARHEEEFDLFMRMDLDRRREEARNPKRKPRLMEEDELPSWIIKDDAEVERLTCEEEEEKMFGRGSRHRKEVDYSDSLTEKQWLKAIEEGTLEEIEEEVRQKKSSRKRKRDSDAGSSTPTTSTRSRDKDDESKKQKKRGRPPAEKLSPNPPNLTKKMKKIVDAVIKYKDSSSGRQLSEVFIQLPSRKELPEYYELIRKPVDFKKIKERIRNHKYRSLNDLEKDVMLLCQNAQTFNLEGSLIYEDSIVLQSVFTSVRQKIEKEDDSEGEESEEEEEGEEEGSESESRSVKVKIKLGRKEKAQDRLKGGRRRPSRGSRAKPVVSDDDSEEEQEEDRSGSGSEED
Protocol: as §1
For measurement of BRG1 degradation, a stable HeLa cell line expressing HiBit-BRG1 and LgBit was generated. The same protocol as above was then followed.
as §2

T1 sequence (P51531 whole entry, the tested form may be a part): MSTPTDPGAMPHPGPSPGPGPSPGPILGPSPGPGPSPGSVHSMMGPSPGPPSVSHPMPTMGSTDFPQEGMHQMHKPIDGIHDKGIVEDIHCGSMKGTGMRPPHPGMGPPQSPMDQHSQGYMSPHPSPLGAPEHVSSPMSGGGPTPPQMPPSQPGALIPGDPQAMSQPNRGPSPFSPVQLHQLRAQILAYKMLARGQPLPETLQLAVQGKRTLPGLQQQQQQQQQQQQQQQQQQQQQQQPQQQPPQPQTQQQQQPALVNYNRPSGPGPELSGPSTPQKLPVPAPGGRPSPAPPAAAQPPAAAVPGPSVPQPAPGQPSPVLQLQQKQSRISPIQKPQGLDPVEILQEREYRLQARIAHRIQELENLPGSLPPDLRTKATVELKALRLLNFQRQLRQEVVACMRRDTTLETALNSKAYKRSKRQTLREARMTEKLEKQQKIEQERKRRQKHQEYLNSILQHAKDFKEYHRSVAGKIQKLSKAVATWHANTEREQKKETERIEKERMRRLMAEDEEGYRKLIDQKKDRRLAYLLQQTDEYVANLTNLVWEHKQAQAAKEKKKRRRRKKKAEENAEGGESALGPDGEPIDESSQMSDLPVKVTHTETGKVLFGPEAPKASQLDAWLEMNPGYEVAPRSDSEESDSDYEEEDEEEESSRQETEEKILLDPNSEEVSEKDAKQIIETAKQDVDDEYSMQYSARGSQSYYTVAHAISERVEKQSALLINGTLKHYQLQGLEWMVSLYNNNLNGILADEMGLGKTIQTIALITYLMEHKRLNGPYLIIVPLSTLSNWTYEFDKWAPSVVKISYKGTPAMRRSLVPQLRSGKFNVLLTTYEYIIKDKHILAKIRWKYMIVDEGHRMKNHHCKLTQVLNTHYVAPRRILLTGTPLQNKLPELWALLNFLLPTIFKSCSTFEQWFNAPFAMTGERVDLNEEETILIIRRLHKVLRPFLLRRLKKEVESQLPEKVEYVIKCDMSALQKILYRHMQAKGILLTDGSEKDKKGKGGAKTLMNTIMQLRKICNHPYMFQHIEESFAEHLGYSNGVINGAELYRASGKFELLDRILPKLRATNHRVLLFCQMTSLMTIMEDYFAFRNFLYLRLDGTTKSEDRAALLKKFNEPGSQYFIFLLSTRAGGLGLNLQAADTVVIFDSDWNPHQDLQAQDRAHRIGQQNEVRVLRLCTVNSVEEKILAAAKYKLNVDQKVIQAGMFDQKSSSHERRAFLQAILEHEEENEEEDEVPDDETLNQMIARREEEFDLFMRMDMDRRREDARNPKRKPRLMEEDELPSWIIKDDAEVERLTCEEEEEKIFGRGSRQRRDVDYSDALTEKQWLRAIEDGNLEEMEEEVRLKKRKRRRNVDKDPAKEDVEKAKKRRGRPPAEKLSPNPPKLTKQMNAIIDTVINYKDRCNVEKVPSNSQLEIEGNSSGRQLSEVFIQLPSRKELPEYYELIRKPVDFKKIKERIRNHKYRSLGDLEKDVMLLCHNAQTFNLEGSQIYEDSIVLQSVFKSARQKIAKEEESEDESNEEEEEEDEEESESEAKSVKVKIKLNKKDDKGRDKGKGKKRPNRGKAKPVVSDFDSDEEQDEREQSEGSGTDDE

Compound	BRM HiBit Degradation Maximum (%) [1]	Dmax [2] [%]
Cc1nc2cccc(NCCCCCCNC(=O)C34CC(COc5cc(-c6ccccc6O)nnc5N)(C3)C4)c2c(=O)n1C1CCC(=O)NC1=O (centres unmarked) [Compound 67, 3-(((3-amino-6-(2-hydroxyphenyl)pyridazin-4-yl)oxy)methyl)-N-(6-((3-(2,6-dioxopiperidin-3-yl)-2-methyl-4-oxo-3,4-dihydroquinazolin-5-yl)amino)hexyl)bicyclo[1.1.1]pentane-1-carboxamide]	C (“C” indicates maximum degradation < 50%)	< 50
Nc1nnc(-c2ccccc2O)cc1OCC12CC(C(=O)NCCOCCOCCNc3cccc4c3CN(C3CCC(=O)NC3=O)C4=O)(C1)C2 (centres unmarked) [Compound 60, 3-(((3-amino-6-(2-hydroxyphenyl)pyridazin-4-yl)oxy)methyl)-N-(2-(2-(2-((2-(2,6-dioxopiperidin-3-yl)-1-oxoisoindolin-4-yl)amino)ethoxy)ethoxy)ethyl)bicyclo[1.1.1]pentane-1-carboxamide]	C (“C” indicates maximum degradation < 50%)	< 50
Nc1nnc(-c2ccccc2O)cc1OCC12CC(CNC(=O)C3CC3CNC(=O)COc3ccc4c(c3)C(=O)N(C3CCC(=O)NC3=O)C4=O)(C1)C2 (centres unmarked) [Compound 13, N-[[3-([[3-amino-6-(2-hydroxyphenyl)pyridazin-4-yl]oxy]methyl)bicyclo[1.1.1]pentan-1-yl]methyl]-2-[(2-[[2-(2,6-dioxopiperidin-3-yl)-1,3-dioxoisoindol-5-yl]oxy]acetamido)methyl]cyclopropane-1-carboxamide]	C (“C” indicates maximum degradation < 50%)	< 50
Nc1nnc(-c2ccccc2O)cc1OCC12CC(C(=O)N3CCN(CCCC#Cc4ccc5c(c4)C(=O)N(C4CCC(=O)NC4=O)C5=O)CC3)(C1)C2 (centres unmarked) [Compound 51, 5-(5-(4-(3-(((3-amino-6-(2-hydroxyphenyl)pyridazin-4-yl)oxy)methyl)bicyclo[1.1.1]pentane-1-carbonyl)piperazin-1-yl)pent-1-yn-1-yl)-2-(2,6-dioxopiperidin-3-yl)isoindoline-1,3-dione]	C (“C” indicates maximum degradation < 50%)	< 50
Nc1nnc(-c2ccccc2O)cc1OCCC12CC(NC(=O)CCCOc3cccc4c3C(=O)N(C3CCC(=O)NC3=O)C4=O)(C1)C2 (centres unmarked) [Compound 18, N-(3-(2-((3-amino-6-(2-hydroxyphenyl)pyridazin-4-yl)oxy)ethyl)bicyclo[1.1.1]pentan-1-yl)-4-((2-(2,6-dioxopiperidin-3-yl)-1,3-dioxoisoindolin-4-yl)oxy)butanamide]	C (“C” indicates maximum degradation < 50%)	< 50
Cc1nc2cccc(NCCCCCCCCNC(=O)C34CC(COc5cc(-c6ccccc6O)nnc5N)(C3)C4)c2c(=O)n1C1CCC(=O)NC1=O (centres unmarked) [Compound 59, 3-(((3-amino-6-(2-hydroxyphenyl)pyridazin-4-yl)oxy)methyl)-N-(8-((3-(2,6-dioxopiperidin-3-yl)-2-methyl-4-oxo-3,4-dihydroquinazolin-5-yl)amino)octyl)bicyclo[1.1.1]pentane-1-carboxamide]	C (“C” indicates maximum degradation < 50%)	< 50
Nc1nnc(-c2ccccc2O)cc1OCC12CC(C(=O)NCCCCCCNc3ccc4c(c3)C(=O)N(C3CCC(=O)NC3=O)C4=O)(C1)C2 (centres unmarked) [Compound 64, 3-(((3-amino-6-(2-hydroxyphenyl)pyridazin-4-yl)oxy)methyl)-N-(6-((2-(2,6-dioxopiperidin-3-yl)-1,3-dioxoisoindolin-5-yl)amino)hexyl)bicyclo[1.1.1]pentane-1-carboxamide]	C (“C” indicates maximum degradation < 50%)	< 50
Nc1nnc(-c2ccccc2O)cc1OCC12CC(C(=O)NCCCCCCCCNc3cccc4c3CN(C3CCC(=O)NC3=O)C4=O)(C1)C2 (centres unmarked) [Compound 58, 3-(((3-amino-6-(2-hydroxyphenyl)pyridazin-4-yl)oxy)methyl)-N-(8-((2-(2,6-dioxopiperidin-3-yl)-1-oxoisoindolin-4-yl)amino)octyl)bicyclo[1.1.1]pentane-1-carboxamide]	C (“C” indicates maximum degradation < 50%)	< 50
Cc1ncsc1-c1ccc(CNC(=O)[C@@H]2C[C@@H](O)CN2C(=O)[C@@H](NC(=O)CCCCCCCCCCCCCCC(=O)NC23CC(CCOc4cc(-c5ccccc5O)nnc4N)(C2)C3)C(C)(C)C)cc1 [Compound 50, N1-(3-(2-((3-amino-6-(2-hydroxyphenyl)pyridazin-4-yl)oxy)ethyl)bicyclo[1.1.1]pentan-1-yl)-N16-((S)-1-((2S,4R)-4-hydroxy-2-((4-(4-methylthiazol-5-yl)benzyl)carbamoyl)pyrrolidin-1-yl)-3,3-dimethyl-1-oxobutan-2-yl)hexadecanediamide; formic acid]	B (“B” indicates maximum degradation ≥ 50%)	< 50
Nc1nnc(-c2ccccc2O)cc1OCC12CC(C(=O)N3CCC(CN4CCN(c5ccc6c(c5)C(=O)N(C5CCC(=O)NC5=O)C6=O)CC4)CC3)(C1)C2 (centres unmarked) [Compound 101, 5-(4-((1-(3-(((3-amino-6-(2-hydroxyphenyl)pyridazin-4-yl)oxy)methyl)bicyclo[1.1.1]pentane-1-carbonyl)piperidin-4-yl)methyl)piperazin-1-yl)-2-(2,6-dioxopiperidin-3-yl)isoindoline-1,3-dione]	B (“B” indicates maximum degradation ≥ 50%)	< 50
Nc1nnc(-c2ccccc2O)cc1OCC12CC(C(=O)N3CC4(CCN(CCCNc5ccc6c(c5)C(=O)N(C5CCC(=O)NC5=O)C6=O)CC4)C3)(C1)C2 (centres unmarked) [Compound 98, 5-((3-(2-(3-(((3-amino-6-(2-hydroxyphenyl)pyridazin-4-yl)oxy)methyl)bicyclo[1.1.1]pentane-1-carbonyl)-2,7-diazaspiro[3.5]nonan-7-yl)propyl)amino)-2-(2,6-dioxopiperidin-3-yl)isoindoline-1,3-dione; formic acid]	B (“B” indicates maximum degradation ≥ 50%)	< 50
Nc1nnc(-c2ccccc2O)cc1OCCC12CC(NC(=O)CCOCCOCCOc3ccc4c(c3)C(=O)N(C3CCC(=O)NC3=O)C4=O)(C1)C2 (centres unmarked) [Compound 31, N-(3-(2-((3-amino-6-(2-hydroxyphenyl)pyridazin-4-yl)oxy)ethyl)bicyclo[1.1.1]pentan-1-yl)-3-(2-(2-((2-(2,6-dioxopiperidin-3-yl)-1,3-dioxoisoindolin-5-yl)oxy)ethoxy)ethoxy)propanamide]	C (“C” indicates maximum degradation < 50%)	< 50
Nc1nnc(-c2ccccc2O)cc1OCC12CC(CNC(=O)CCN3CC4(C3)CN(c3ccc5c(c3)C(=O)N(C3CCC(=O)NC3=O)C5=O)C4)(C1)C2 (centres unmarked) [Compound 17, N-((3-(((3-amino-6-(2-hydroxyphenyl)pyridazin-4-yl)oxy)methyl)bicyclo[1.1.1]pentan-1-yl)methyl)-3-(6-(2-(2,6-dioxopiperidin-3-yl)-1,3-dioxoisoindolin-5-yl)-2,6-diazaspiro [3.3]heptan-2-yl)propanamide]	C (“C” indicates maximum degradation < 50%)	< 50
